Laboratory results reported in US7674823B2, “DNA-PK inhibitors” (Cancer Research Technology Limited, priority 2001, dated 2010).
pIC50: −log10 of the molar value. Where two headings read alike, the source gives them in different places.

How the values were obtained:
ATM protein [1] = experiment: ATM inhibition assay (immunoprecipitated ATM, GSTp53N66 substrate); type: biochemical, human; details: selectivity ratio from the IC50s for ATM and DNA-PK
Procedure: (§1) In order to assess the inhibitory action of the compounds against ATM in vitro, the following assay was used to determine IC50 values.
(§2) ATM protein was immunoprecipitated from HeLa cell nuclear extract using rabbit polyclonal antisera raised to the C-terminal ˜500 amino-acid residues of the human ATM protein. The immunoprecipitation was performed according to the methodology described by Banin, S. et al. (1998) Enhanced phosphorylation of p53 by ATM in response to DNA damage. Science 281:1674-1677. 10 μl of immunoprecipitated ATM in Buffer C (50 mM Hepes, pH 7.4, 6 mM MgCl2, 150 mM NaCl, 0.1 mM sodium orthovanadate, 4 mM MnCl2, 0.1 mM dithiothreitol, 10% glycerol) was added to 32.5 μl of buffer C containing 1 μg of the ATM substrate GSTp53N66 in a V-bottomed 96 well polypropylene plate. The GSTp53N66 substrate is the amino terminal 66 amino acid residues of human wild type p53 fused to glutathione S-transferase. ATM phosphorylates p53 on the residue serine 15 (Banin, S. et al. (1998) Enhanced phosphorylation of p53 by ATM in response to DNA damage. Science 281:1674-1677). Varying concentrations of inhibitor were then added. […] After 10 minutes of incubation at 37° C., the reactions were initiated by the addition of 5 μl of 50 μM Na-ATP. After 1 h with shaking at 37° C., 150 μl of phosphate buffered saline (PBS) was added to the reaction and the plate centrifuged at 1500 rpm for 10 minutes. 5 μl of the reaction was then transferred to a 96 well opaque white plate containing 45 μl of PBS to allow the GSTp53N66 substrate to bind to the plate wells. The plate was covered and incubated at room temperature for 1 h with shaking before discarding the contents. The plate wells were washed twice by the addition of PBS prior to the addition of 3% (w/v) bovine serum albumin (BSA) in PBS. The plate was incubated at room temperature for 1 h with shaking before discarding the contents and washing twice with PBS. To the wells, 50 μl of a 1:10,000 dilution of primary phosphoserine-15 antibody (Cell Signaling Technology, #9284L) in 3% BSA/PBS was added to detect the phosphorylation event on the serine 15 residue of p53 elicited by the ATM kinase. After 1 h of incubation at room temperature with shaking, the wells were washed four times with PBS prior to the addition of an anti-rabbit HRP conjugated secondary antibody (Pierce, 31462) with shaking for 1 h at room temperature. The wells were then washed four times with PBS before the addition of chemiluminescence reagent (NEN Renaissance, NEL105). The plate was then shaken briefly, covered with a transparent plate seal and transferred to a TopCount NXT for chemiluminescent counting. Counts per second, following a one second counting time, were recorded for each reaction. The inhibition of ATM activity by compounds was calculated as described above for the DNA-PK assay.
(§3) The selectivity was determined by the following equation: […]

ATM protein [2] = biological target: T1, ATM protein (Homo sapiens, UniProt Q13315); experiment: as above; type: biochemical
T1 construct: ATM protein was immunoprecipitated from HeLa cell nuclear extract; endogenous in cells; host or cells: HeLa cell nuclear extract (immunoprecipitate)
T1 sequence (Q13315 whole entry): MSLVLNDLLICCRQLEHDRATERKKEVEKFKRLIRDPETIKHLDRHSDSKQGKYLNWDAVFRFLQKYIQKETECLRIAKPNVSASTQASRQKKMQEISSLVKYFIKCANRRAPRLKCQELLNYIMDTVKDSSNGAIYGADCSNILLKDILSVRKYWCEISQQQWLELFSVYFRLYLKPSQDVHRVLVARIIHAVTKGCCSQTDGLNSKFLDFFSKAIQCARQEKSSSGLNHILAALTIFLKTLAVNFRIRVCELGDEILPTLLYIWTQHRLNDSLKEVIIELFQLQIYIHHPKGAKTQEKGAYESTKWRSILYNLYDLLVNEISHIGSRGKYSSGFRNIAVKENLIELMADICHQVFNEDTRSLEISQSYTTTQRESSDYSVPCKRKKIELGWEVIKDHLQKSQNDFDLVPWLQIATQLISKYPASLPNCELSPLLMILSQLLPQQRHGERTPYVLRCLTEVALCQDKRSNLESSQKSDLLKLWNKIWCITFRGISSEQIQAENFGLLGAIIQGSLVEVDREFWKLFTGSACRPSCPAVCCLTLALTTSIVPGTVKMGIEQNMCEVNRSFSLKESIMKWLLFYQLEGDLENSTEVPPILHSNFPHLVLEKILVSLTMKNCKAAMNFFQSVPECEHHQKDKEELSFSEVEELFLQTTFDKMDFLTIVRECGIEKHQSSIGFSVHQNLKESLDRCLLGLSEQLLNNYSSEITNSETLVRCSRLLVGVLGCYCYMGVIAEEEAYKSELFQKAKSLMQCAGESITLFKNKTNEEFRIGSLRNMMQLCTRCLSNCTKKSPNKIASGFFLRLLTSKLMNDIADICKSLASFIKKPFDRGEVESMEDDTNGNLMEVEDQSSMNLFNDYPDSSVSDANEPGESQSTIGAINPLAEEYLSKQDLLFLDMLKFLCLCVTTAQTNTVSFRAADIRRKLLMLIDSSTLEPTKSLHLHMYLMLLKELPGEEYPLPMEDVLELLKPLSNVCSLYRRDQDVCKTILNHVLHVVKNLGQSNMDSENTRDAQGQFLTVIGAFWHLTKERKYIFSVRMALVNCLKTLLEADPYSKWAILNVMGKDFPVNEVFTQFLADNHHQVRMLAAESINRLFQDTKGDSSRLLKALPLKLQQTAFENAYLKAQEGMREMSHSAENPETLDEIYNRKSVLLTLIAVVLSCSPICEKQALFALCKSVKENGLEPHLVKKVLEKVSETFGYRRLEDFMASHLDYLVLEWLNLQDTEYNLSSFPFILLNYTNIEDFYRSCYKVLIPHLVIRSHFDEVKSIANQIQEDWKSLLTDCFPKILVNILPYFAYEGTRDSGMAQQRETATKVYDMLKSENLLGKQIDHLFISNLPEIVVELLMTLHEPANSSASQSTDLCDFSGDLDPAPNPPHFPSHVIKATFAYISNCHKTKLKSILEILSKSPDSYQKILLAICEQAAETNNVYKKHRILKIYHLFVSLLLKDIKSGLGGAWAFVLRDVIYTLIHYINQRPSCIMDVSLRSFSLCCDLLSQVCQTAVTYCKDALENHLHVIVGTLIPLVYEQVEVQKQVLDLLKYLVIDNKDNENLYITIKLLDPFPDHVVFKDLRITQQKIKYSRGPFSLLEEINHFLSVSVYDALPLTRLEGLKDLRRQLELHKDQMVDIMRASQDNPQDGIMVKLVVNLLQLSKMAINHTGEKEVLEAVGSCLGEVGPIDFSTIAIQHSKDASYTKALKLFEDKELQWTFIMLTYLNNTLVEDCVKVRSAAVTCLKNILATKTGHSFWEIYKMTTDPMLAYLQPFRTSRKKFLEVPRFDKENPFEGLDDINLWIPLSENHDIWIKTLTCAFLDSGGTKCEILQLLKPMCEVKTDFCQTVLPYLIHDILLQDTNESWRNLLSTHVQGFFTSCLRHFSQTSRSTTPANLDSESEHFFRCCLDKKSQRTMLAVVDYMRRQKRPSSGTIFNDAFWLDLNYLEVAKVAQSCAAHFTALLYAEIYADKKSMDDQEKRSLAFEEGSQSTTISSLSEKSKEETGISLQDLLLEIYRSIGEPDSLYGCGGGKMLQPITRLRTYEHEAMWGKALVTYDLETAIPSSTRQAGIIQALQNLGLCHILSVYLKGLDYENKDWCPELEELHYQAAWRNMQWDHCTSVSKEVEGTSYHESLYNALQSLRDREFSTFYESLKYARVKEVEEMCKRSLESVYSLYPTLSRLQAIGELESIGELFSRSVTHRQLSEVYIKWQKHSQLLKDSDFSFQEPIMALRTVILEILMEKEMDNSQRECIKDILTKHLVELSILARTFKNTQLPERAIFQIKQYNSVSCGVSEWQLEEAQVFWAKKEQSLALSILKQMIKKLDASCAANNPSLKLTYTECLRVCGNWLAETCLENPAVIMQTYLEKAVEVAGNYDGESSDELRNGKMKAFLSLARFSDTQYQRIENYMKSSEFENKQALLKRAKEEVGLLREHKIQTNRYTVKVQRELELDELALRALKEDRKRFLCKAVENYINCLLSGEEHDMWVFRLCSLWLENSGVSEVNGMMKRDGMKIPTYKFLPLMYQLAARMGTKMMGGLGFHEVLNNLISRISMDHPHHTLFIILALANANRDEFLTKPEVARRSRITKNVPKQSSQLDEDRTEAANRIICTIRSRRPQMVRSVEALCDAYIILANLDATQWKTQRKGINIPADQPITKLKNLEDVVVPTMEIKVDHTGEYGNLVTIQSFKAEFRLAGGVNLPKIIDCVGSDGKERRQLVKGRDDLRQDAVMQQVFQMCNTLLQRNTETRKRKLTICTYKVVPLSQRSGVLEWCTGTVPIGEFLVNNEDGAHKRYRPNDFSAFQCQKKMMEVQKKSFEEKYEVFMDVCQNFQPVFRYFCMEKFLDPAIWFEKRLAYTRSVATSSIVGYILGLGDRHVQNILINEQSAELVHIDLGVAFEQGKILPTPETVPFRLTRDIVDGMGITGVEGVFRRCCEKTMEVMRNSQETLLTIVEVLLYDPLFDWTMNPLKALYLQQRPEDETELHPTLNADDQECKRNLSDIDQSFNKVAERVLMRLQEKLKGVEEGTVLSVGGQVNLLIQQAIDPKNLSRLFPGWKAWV
Procedure: as §1, §2, §3

[3] = biological target: T2, Mammalian DNA-PK, isolated from Hela cell nuclear extract (Homo sapiens, UniProt P78527); experiment: DNA-PK inhibition assay (33P-ATP, filter binding); type: biochemical
T2 construct: Mammalian DNA-PK, isolated from Hela cell nuclear extract; endogenous in cells; host or cells: HeLa cell nuclear extract (purified per Gell and Jackson 1999)
How it was run: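 DNA-PK from HeLa nuclear extract preincubated with compound 10 min at 30 °C, then started with 50 μM Na-ATP final, ^33P-γATP and 30mer dsDNA (10 ng/μl), run 45 min at 30 °C.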

PI 3-kinase (p110α/p85α) [4] = experiment: PI 3-kinase inhibition assay; type: biochemical; details: selectivity ratio from the IC50s for PI 3-kinase and DNA-PK
From the text: (§4) In order to assess the inhibitory action of the compounds against PI 3-kinase in vitro, the following assay was used to determine IC50 values.
(§5) Baculoviral recombinant GST-fused PI 3-kinase (p110α/p85α) was purified from Sf9 insect cells using GSH-sepharose affinity chromatography as described (Wymann, M. T et al., (1996) Wortmannin inactivates phosphoinositide 3-kinase by covalent modification of Lys-802, a residue involved in the phosphate transfer reaction. Mol. Cell Biol. 16:1722-1733). PI 3-kinase (1 μl) was diluted in reaction buffer (89 μl of 50 mM Hepes pH 7.5, 150 mM NaCl, 0.1 mM Sodium Orthovanadate, containing 20 μg of phosphatidylinositol) and varying concentrations of inhibitor compound added. […] Reactions were incubated for a further 20 minutes at 37° C., before quenching with the addition of 400 μl of chloroform/methanol (1:1). Reactions were acidified by the addition of 200 μl of 1M HCl, before separation of the organic and aqueous phases by centrifugation at 10,000 g for 30 seconds. The organic phase was transferred to a fresh tube and washed twice with 150 μl of 1M hydrochloric acid/methanol (1:1), discarding the aqueous phase. The washed reaction product was then placed in a white 96-well plate with 100 μl of scintillation fluid and transferred to a TopCount NXT for scintillation counting. Counts per minute, following a one minute counting time, were recorded for each reaction. The inhibition of PI 3-kinase activity by compounds was calculated as described above for the DNA-PK assay.
as §3

HeLa cells = experiment: Enhancement Ratio: cell growth inhibition (SRB assay) after 2 Gy irradiation; type: cell-based; details: inhibitor 25 μM
Procedure: DNA-PK inhibitors were used at a fixed concentration of 25 micromolar. Radiation was delivered by a Faxitron 43855D X-ray system at a dose rate of 1Gy per minute The Enhancement ratio at 2 Gy irradiation was calculated from the formula: [formula] Cell growth was assessed using the sulforhodamine B (SRB) assay (Skehan, P., Storung, R., Scudiero, R., Monks, […]., Kenny, S. and Boyd, M. R. (1990) New calorimetric cytotoxicity assay for anticancer-drug screening. J. Natl. Cancer Inst. 82:1107-1112). 400 HeLa cells were seeded into each well of a flat-bottomed 48-well microtiter plate in a volume of 200 μl and incubated for 6 h at 37° C. […] Cells were allowed to grow for a further 1 h before irradiation or mock irradiation. Cells untreated with DNA-PK inhibitor or unirradiated were used as a control. Cells treated with DNA-PK inhibitor alone were used to assess the growth inhibition by the DNA-PK inhibitor. Cells were left for a further 16 h before replacing the media and allowing the cells to grow for a further 6 days at 37° C. The media was then removed and the cells fixed with 200 μl of ice cold 10% (w/v) trichloroacetic acid. The plates were incubated at 4° C. for 20 minutes and then washed four times with water. Each well of cells was then stained with 200 μl of 0.4% (w/v) SRB in 1% acetic acid for 20 minutes before washing four times with 1% acetic acid. Plates were then dried for 2 h at room temperature. The dye from the stained cells was solubilized by the addition of 100 μl of 10 mM Tris Base into each well. Plates were gently shaken and left at room temperature for 30 minutes before measuring the optical density at 564 nm on a Microquant microtiter plate reader.

PI 3-kinase (p110α/p85α) [5] = biological target: T3, PI 3-kinase (p110α/p85α) (UniProt P32871); experiment: PI 3-kinase inhibition assay; type: biochemical; details: GST-fused p110α/p85α
T3 construct: other: GST-fused p110α/p85α
From the text: as §4, §5, §3

cells = details: literature; cited from earlier work
PI 3-kinase = details: stated to be the same as for DNA-PK; cited from earlier work
[6] = IC50 of less than about 1 μM and/or % inhibition of more than about 50 at 1 μM, read-out: DNA-PK inhibition IC50 (particular efficacy)
[7] = concentration at which 50% of the enzyme activity is inhibited, read-out: DNA-PK Inhibition IC50

SMILES	pIC50 (ATM protein [2])	pIC50 [3, 6]	pIC50 [3, 7]	Δ(DNA-PK/PI 3-K) (PI 3-kinase (p110α/p85α) [4])	pIC50 (PI 3-kinase (p110α/p85α) [5])	melting point	Δ(DNA-PK/ATM) (ATM protein [1])	Enhancement Ratio (ER) (HeLa cells)	sensitisation of cells to the effects of IR (cells)	pIC50 (PI 3-kinase)
O=c1cc(N2CCOCC2)nc2c3ccccc3ccn12 [Compound 5, 2-morpholin-1-yl-pyrimido-[2,1-a]isoquinolin-4-one]	< 4.00	> 6.00	6.46	>143	–	–	>286	1.63	–	–
O=c1cc(N2CCOCC2)oc2c1ccc1ccccc12 [Compound 293, 2-(morpholin-4-yl)-benzo[h]chromen-4-one]	< 4.00	> 6.00	6.40	50	4.70	–	>250	1.7	–	–
O=c1cc(N2CCSCC2)oc2c1ccc1ccccc12 [Compound 296, 2-(thiomorpholin-4-yl)-benzo[h]chromen-4-one]	< 4.00	–	5.92	5	5.22	171 to 173 °C	>83	–	–	–
O=c1cc(N2CCOCC2)oc2ccc3ccccc3c12 [Compound 310, 2-morpholin-4-yl-benzo[f]chromen-4-one]	< 4.00	–	–	110	4.96	–	>1000	–	–	–
O=c1cc(N2CCOCC2)oc2cc(OCc3ccccc3)ccc12 [Compound 337, 7-Benzyloxy-2-morpholin-4-yl-chromen-4-one]	< 4.00	> 6.00	6.19	–	–	–	>154	1.12	–	–
O=c1cc(N2CCOCC2)oc2cc(OCc3ccc(F)cc3)ccc12 [Compound 414, 7-(4-Fluoro-benzyloxy)-2-morpholin-4-yl-chromen-4-one]	< 4.00	–	5.82	–	4.02	–	–	1.69	–	–
O=c1cc(N2CCOCC2)oc2cc(OCc3ccc(Cl)cc3)ccc12 [Compound 415, 7-(4-chlorobenzyloxy)-2-(morpholin-4-yl)-chromen-4-one]	< 4.00	> 6.00	6.30	>200	< 4.00	–	>200	1.86	–	–
O=c1cc(N2CCOCC2)oc2cc(OCc3ccc(Br)cc3)ccc12 [Compound 416, 7-(4-Bromobenzyloxy)-2-morpholin-4-yl-chromen-4-one]	< 4.00	> 6.00	6.22	–	–	221 to 222 °C	>167	1.32	–	–
O=c1cc(N2CCOCC2)oc2c(-c3ccccc3)cccc12 [LY294002]	–	–	–	–	–	–	–	–	weakly sensitise	~6.00

More lines, main results first:

pIC50 (ATM protein [2])	pIC50 [3, 6]	pIC50 [3, 7]	Δ(DNA-PK/PI 3-K) (PI 3-kinase (p110α/p85α) [4])	pIC50 (PI 3-kinase (p110α/p85α) [5])	melting point	SMILES	Δ(DNA-PK/ATM) (ATM protein [1])	Enhancement Ratio (ER) (HeLa cells)	sensitisation of cells to the effects of IR (cells)	pIC50 (PI 3-kinase)
< 4.30	–	–	38	4.52	148 to 150 °C	O=c1cc(-c2ccccc2)oc(N2CCOCC2)c1 [Compound 285, 2-(morpholin-4-yl)-6-phenyl-pyran-4-one]	>63	–	–	–
< 4.00	–	–	43	4.82	–	COc1ccc(-c2cc(=O)cc(N3CCOCC3)o2)cc1 [Compound 288, 2-(4-Methoxyphenyl)-6-(morpholin-4-yl)-pyran-4-one]	>286	–	–	–
< 4.30	–	–	82	4.43	156 °C	CC(C)(C)c1ccc(-c2cc(=O)cc(N3CCOCC3)o2)cc1 [Compound 289, 2-(4-tert-butyl-phenyl)-6-(morpholin-4-yl)-pyran-4-one]	>111	–	–	–
< 4.00	–	–	52	4.89	216 to 217 °C	O=c1cc(-c2ccc(F)cc2)oc(N2CCOCC2)c1 [Compound 292, 6-(4-fluorophenyl)-2-(morpholin-4-yl)pyran-4-one]	>400	–	–	–
< 4.30	> 6.00	6.40	40	4.80	219 °C	O=c1cc(N2CCOCC2)oc2cc3ccccc3cc12 [Compound 301, 2-(morpholin-4-yl)-benzo[g]chromen-4-one]	>125	–	–	–
